Test results published in patent US20260078119A1, “DEGRADER COMPOUNDS AND USES THEREOF” (Bristol-Myers Squibb Company, priority 2024, published 2026).
pEC50: −log10 of the molar value.

What was measured:
FAK = biological target: T1, FAK (Homo sapiens, UniProt Q05397); experiment: FAK-HiBiT Degradation Assay; type: cell-based; details: for DC50: JHH-4-FAK-HiBiT clone d01 cells, two hours incubation, 10-point dose response, 3-fold dilution starting at 1 μM, Nano-Glo HiBiT luminescence, read-out: FAK HiBiT EC50; for FAK HiBiT Ymin: lower limit of the four parameter fit (value A), Ymax derived using DMSO control, JHH-4-FAK-HiBiT cells, two hours
T1 construct: homozygous knock-in of a HiBiT tag (Promega Corporation, Madison, WI) to the C-terminus of the FAK gene in its natural genomic locus; endogenous in cells; host or cells: JHH-4-FAK-HiBiT clone d01 (CRISPR-Cas9 knock-in at the endogenous locus)
In short: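 Degradation read out by HiBiT lytic luminescence after 2 h compound exposure (top concentration 1 μM, 3-fold, 10 points) in JHH-4 clone d01 bearing endogenous FAK-HiBiT knock-in. Four-parameter logistic fit gave EC50 and Ymin; DMSO wells defined Ymax.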

CAL-51 cells = experiment: CAL-51 Cell Proliferation Assay; type: cell-based; details: for pEC50: Homo sapiens, 120 hours incubation, 10-point dose response, 4-fold dilutions starting at 10 μM, Cell-Titer-Glo, read-out: CAL-51 Prolif EC50; for CAL-51 Prolif Ymin: minimal percent of DMSO control observed in the concentrations tested (Ymin-obs), 120 hours
In short: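 EC50 comes from a four-parameter logistic fit of blank-corrected, DMSO-normalised CellTiter-Glo signal after 120 h growth (37 °C, 350 cells/well, RPMI complete medium). Compounds ran as 10-point 4-fold series starting at 10 μM, duplicate, 0.1% DMSO. Ymin-obs records the minimal percent of DMSO control observed.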

T1 sequence (Q05397 whole entry): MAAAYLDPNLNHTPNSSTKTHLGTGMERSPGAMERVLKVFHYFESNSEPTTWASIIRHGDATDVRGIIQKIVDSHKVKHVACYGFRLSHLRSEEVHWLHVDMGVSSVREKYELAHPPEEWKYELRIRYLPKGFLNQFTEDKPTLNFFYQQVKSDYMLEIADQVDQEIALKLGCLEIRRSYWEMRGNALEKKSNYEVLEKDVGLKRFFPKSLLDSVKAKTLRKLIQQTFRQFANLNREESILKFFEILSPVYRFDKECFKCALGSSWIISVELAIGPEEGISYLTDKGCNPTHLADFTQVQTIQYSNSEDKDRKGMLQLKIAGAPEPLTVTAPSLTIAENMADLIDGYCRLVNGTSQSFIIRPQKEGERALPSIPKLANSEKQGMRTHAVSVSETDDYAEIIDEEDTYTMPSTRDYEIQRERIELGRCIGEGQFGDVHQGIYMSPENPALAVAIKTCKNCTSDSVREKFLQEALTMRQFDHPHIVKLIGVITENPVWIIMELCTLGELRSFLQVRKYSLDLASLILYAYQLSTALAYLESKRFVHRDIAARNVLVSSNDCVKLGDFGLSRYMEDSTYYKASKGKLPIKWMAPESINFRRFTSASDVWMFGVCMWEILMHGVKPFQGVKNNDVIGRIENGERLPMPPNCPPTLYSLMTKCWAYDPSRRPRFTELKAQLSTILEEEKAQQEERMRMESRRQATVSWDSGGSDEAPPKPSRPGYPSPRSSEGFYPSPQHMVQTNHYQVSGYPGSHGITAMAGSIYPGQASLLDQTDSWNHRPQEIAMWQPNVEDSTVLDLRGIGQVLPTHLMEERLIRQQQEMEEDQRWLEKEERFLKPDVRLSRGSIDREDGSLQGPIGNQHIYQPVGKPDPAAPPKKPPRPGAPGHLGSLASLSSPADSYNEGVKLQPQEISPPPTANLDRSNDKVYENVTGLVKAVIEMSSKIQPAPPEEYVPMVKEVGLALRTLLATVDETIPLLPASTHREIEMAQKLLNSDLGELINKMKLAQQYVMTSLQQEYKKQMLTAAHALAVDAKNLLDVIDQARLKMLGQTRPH

| DC50 (FAK) [nM] | FAK HiBiT Ymin (FAK) | Structure (SMILES) | pEC50 (CAL-51 cells) | CAL-51 Prolif Ymin (CAL-51 cells) |
| --- | --- | --- | --- | --- |
| 0.76 | 8.92 | O=C1CCC(N2Cc3cc(Cn4ncc5c(-c6ncc(F)cc6Cl)c(F)c(N6CC(F)C6)nc54)ccc3C2=O)C(=O)N1 (centres unmarked) [Example 31, 3-(5-{[4-(3-chloro-5-fluoropyridin-2-yl)-5-fluoro-6-(3-fluoroazetidin-1-yl)-1H-pyrazolo[3,4-b]pyridin-1-yl]methyl}-1-oxo-2,3-dihydro-1H-isoindol-2-yl)piperidine-2,6-dione] | 8.41 | 34.80 |
| 29.6 | 5.76 | Cc1nc2c(-c3ncc(F)cc3Cl)cc(N3CC(F)C3)nc2n1Cc1ccc2c(c1)CN(C1CCC(=O)NC1=O)C2=O (centres unmarked) [Example 24, 3-(5-((7-(3-chloro-5-fluoropyridin-2-yl)-5-(3-fluoroazetidin-1-yl)-2-methyl-3H-imidazo[4,5-b]pyridin-3-yl)methyl)-1-oxoisoindolin-2-yl)piperidine-2,6-dione] | 8.39 | 23.72 |
| 0.24 | 7.25 | O=C1CC[C@H](N2Cc3cc(Cn4ncc5c(-c6ncc(C(F)(F)F)cc6Cl)c(Cl)c(N6CC(F)C6)nc54)ccc3C2=O)C(=O)N1 [Example 2, (3S)-3-[5-({5-chloro-4-[3-chloro-5-(trifluoromethyl)pyridin-2-yl]-6-(3-fluoroazetidin-1-yl)-1H-pyrazolo[3,4-b]pyridin-1-yl}methyl)-1-oxo-2,3-dihydro-1H-isoindol-2-yl]piperidine-2,6-dione] | 9.37 | 14.10 |
| ≥ 1000 | 95.34 | O=C1CCC(N2Cc3cc(Cn4ncc5c(-c6nnccc6C(F)(F)F)cc(N6CC(F)C6)nc54)ccc3C2=O)C(=O)N1 (centres unmarked) [Example 129, 3-(5-{[6-(3-fluoroazetidin-1-yl)-4-[4-(trifluoromethyl)pyridazin-3-yl]-1H-pyrazolo[3,4-b]pyridin-1-yl]methyl}-1-oxo-2,3-dihydro-1H-isoindol-2-yl)piperidine-2,6-dione] | 6.30 | 92.49 |
| 149 | 29.00 | Cc1cc(F)cnc1-c1cc(N2CC[C@H](O)C2)nc2c1cnn2Cc1ccc2c(c1)CN([C@H]1CCC(=O)NC1=O)C2=O [Example 125, (3S)-3-(5-{[4-(5-fluoro-3-methylpyridin-2-yl)-6-[(3S)-3-hydroxypyrrolidin-1-yl]-1H-pyrazolo[3,4-b]pyridin-1-yl]methyl}-1-oxo-2,3-dihydro-1H-isoindol-2-yl)piperidine-2,6-dione] | 6.58 | 34.48 |

The next lines start with the compound.

| Structure (SMILES) | DC50 (FAK) [nM] | FAK HiBiT Ymin (FAK) | pEC50 (CAL-51 cells) | CAL-51 Prolif Ymin (CAL-51 cells) |
| --- | --- | --- | --- | --- |
| O=C1CC[C@@H](N2Cc3c(ccc(Cn4ncc5c(-c6ncc(F)cc6Cl)cc(N6CC(F)C6)nc54)c3F)C2=O)C(=O)N1 (single isomer, unassigned) [Example 109] | 42.1 | 11.09 | 7.99 | 35.33 |
| C[C@]1(O)CCN(c2nc3c(cnn3Cc3ccc4c(c3)CN([C@H]3CCC(=O)NC3=O)C4=O)c(-c3ncc(C(F)(F)F)cc3Cl)c2F)C1 [Example 140, (3S)-3-[5-({4-[3-chloro-5-(trifluoromethyl)pyridin-2-yl]-5-fluoro-6-[(3S)-3-hydroxy-3-methylpyrrolidin-1-yl]-1H-pyrazolo[3,4-b]pyridin-1-yl}methyl)-1-oxo-2,3-dihydro-1H-isoindol-2-yl]piperidine-2,6-dione] | 3.11 | 9.35 | 8.66 | 29.76 |
| O=C1CC[C@H](N2Cc3cc(Cn4ncc5c(-c6ncc(OC(F)F)cc6Cl)cc(N6CC(F)C6)nc54)ccc3C2=O)C(=O)N1 [Example 49, (3S)-3-[5-({4-[3-chloro-5-(difluoromethoxy)pyridin-2-yl]-6-(3-fluoroazetidin-1-yl)-1H-pyrazolo[3,4-b]pyridin-1-yl}methyl)-1-oxo-2,3-dihydro-1H-isoindol-2-yl]piperidine-2,6-dione] | 2 | 7.78 | 9.43 | 23.11 |
